# Results as given in publication PMC6198068, “Discovery of a Novel Nav1.7 Inhibitor From Cyriopagopus albostriatus Venom With Potent Analgesic Efficacy” (Frontiers in Pharmacology, 2018).
# Read-outs that look alike come from different tables or passages of the source. Where a SMILES comes first, the peptide text is derived from it. Bridges are numbered along the chain shown (N, C = ends).
# Assays:
# Nav1.7 [1] = biological target: T1, Nav1.7 (Homo sapiens, UniProt Q15858); experiment: Rate of toxin dissociation from Nav1.7 at depolarizing pulses; assay type: cell-based; details: 1 μM, mean ± SEM, n = 6–11 cells
# T1 construct: expressed in transfected cells; host or cells: HEK293T
# T1 sequence (O60939 30-215): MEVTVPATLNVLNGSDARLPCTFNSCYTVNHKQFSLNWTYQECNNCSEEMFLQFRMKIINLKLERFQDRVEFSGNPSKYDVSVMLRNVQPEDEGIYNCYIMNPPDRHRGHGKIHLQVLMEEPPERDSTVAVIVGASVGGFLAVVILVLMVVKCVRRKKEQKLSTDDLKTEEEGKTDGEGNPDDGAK
# T1 sequence (Q15858 other isoform, or with tags, fused parts or gaps): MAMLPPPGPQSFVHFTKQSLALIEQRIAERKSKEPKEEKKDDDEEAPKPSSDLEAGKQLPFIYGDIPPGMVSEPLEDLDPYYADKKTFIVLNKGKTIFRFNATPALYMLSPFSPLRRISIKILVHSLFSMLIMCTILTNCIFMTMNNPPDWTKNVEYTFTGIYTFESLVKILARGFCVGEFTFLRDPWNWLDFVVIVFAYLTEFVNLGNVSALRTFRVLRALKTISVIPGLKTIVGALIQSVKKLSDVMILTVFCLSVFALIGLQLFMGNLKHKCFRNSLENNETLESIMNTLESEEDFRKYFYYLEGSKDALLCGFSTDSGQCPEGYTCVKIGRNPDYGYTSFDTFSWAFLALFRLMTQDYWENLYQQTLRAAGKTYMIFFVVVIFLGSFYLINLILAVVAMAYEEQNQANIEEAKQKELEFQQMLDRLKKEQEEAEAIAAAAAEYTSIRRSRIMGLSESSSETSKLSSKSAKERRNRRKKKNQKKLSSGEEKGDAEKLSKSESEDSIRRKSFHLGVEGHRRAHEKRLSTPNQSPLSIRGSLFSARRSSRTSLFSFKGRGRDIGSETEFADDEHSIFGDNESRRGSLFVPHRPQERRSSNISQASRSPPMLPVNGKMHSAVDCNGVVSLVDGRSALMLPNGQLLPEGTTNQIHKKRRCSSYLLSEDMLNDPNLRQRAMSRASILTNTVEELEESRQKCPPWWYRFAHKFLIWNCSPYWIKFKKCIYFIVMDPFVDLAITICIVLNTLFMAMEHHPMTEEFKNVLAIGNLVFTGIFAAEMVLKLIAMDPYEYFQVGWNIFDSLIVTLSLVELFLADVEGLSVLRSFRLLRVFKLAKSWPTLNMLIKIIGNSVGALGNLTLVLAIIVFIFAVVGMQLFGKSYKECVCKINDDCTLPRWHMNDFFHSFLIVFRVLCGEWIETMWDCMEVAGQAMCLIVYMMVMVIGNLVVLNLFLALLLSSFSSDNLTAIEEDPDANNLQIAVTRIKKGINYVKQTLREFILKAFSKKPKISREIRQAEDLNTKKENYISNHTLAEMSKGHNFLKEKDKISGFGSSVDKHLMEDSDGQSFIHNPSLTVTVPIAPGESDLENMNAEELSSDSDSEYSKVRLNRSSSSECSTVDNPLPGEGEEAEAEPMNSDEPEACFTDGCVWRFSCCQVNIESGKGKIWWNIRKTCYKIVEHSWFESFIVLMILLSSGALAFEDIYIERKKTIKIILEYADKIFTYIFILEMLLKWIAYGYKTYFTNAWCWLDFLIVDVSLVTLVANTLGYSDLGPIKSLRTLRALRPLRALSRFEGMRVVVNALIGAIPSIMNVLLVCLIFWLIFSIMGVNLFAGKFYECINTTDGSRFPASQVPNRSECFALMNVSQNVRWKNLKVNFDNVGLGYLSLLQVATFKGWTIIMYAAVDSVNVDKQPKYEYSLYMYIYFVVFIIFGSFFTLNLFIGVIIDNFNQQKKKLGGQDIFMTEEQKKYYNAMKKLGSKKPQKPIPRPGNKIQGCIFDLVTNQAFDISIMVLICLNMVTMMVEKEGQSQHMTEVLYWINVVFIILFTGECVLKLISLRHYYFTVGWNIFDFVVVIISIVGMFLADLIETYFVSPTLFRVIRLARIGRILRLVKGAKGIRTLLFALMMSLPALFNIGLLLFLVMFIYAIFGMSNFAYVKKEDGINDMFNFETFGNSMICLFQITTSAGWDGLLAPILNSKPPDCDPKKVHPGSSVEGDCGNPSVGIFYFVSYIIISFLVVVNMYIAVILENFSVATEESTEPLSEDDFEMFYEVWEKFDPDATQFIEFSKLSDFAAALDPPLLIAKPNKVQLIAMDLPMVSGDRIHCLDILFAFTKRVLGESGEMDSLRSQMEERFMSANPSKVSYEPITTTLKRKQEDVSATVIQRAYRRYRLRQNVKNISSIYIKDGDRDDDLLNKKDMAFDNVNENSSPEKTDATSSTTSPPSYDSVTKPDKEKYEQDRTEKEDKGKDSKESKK
# T1 sequence (Q07699 19-218, further chain): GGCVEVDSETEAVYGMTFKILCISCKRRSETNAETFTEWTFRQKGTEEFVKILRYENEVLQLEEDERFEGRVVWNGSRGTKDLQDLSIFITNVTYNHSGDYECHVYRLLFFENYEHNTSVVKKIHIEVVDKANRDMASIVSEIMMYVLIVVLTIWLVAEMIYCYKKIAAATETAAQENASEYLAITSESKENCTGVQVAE
# Description: (§1) The cDNA genes encoding rat Nav1.4 and human Nav1.7 were subcloned into vectors pRGB4 and pcDNA3.1-mod, respectively. Mutations of rNav1.4 (N655D, Q657E, and N655D/Q657E) and hNav1.7 (D816N, E818Q, and D816N/E818Q) were constructed using the Gene Tailor Site-Directed Mutagenesis system (Invitrogen, Carlsbad, CA, United States), according to the manufacturer’s instructions. Nav1.2–Nav1.7 and mutant plasmids together with eGFP were transiently transfected into HEK293T cells while Nav1.8 together with eGFP was transiently transfected into ND7/23 cells by Lipofectamine 2000 (Invitrogen, Carlsbad, CA, United States). Additionally, plasmids β1- and β2-eGFP encoding the human β1 and β2 subunits, respectively, were co-transfected with those encoding WT Nav1.7 and Nav1.7 mutations in HEK293T cells. Human Nav1.9 was transfected into ND7/23 cells according to a previous report ([Zhou et al., 2017]). […] Cells with green fluorescent protein fluorescence were selected for whole-cell patch-clamp recordings 24 h after transfection.
# (§2) Whole-cell patch-clamp recordings were performed at room temperature (20–25°C) using an EPC 10 USB Patch Clamp Amplifier (HEKA, Elektronik, Lambrecht, Germany). […] Data was analyzed by software Igo Pro 6.10A (WaveMetrics, Lake Oswego, OR, United States), SigmaPlot 10.0 (Sigma-Aldrich, St. Louis, MO, United States), OriginPro 8 (OriginLab Corp., Northampton, MA, United States), and GraphPad Prism 5 (GraphPad Software, San Diego, CA, United States). […]
# (§3) Fast inactivation time constants were calculated by fitting current decay traces with a single exponential function using the I–V protocol described above. Recovery from fast-inactivation (repriming) was assessed by using a two-pulse protocol consisting of a depolarizing pulse to −10 mV for 50 ms to inactivate channels, followed by a step to −100 mV of variable duration (1 to 1024 ms) to promote recovery, and 50 ms test pulse to −10 mV to assess availability of channels. […]
# Human Nav1.9 = experiment: Whole-cell patch-clamp, Nav1.9 in ND7/23 cells; assay type: cell-based; details: up to 10 μM, 50 ms to −40 mV from −120 mV, in presence of 1 μM TTX
# Nav1.7 [2] = biological target: T1, Nav1.7; experiment: Use/frequency-dependent inhibition of Nav1.7; assay type: cell-based; details: n = 4-5; for IC50: read-out: IC50 Nav1.7, repetitive pulses
# Description: as §1, §2, §3
# Nav1.4/N655D = experiment: Whole-cell patch-clamp, Nav1.4/N655D in HEK293T cells; assay type: cell-based, rat; details: 1 μM, n = 4–5 cells
# Description: as §1, with “cells.” for “cells. Human Nav1.9 was transfected into ND7/23 cells according to a previous report ([Zhou et al., 2017]).”
# as §2
smiles,measurement,setting,value
"CC(C)C[C@H](NC(=O)[C@H](CC(=O)O)NC(=O)[C@H](Cc1ccc(O)cc1)NC(=O)[C@H](CCCCN)NC(=O)[C@@H]1CSSC[C@@H]2NC(=O)[C@H](CCCCN)NC(=O)[C@H](CC(=O)O)NC(=O)[C@H](CC(N)=O)NC(=O)[C@H](CO)NC(=O)[C@@H]3CCCN3C(=O)[C@H](CC(N)=O)NC(=O)[C@@H]3CSSC[C@H](NC(=O)[C@H](C(C)C)NC(=O)[C@H](CC(C)C)NC(=O)[C@H](CO)NC(=O)[C@H](CO)NC(=O)[C@H](CO)NC(=O)[C@H](CCCCN)NC(=O)[C@H](CSSC[C@H](NC(=O)[C@H](C)N)C(=O)N[C@@H](CC(C)C)C(=O)NCC(=O)N[C@@H](Cc4ccccc4)C(=O)NCC(=O)N[C@@H](CCC(=O)O)C(=O)N[C@@H](CCCCN)C(=O)N3)NC2=O)C(=O)N[C@@H](CO)C(=O)N[C@@H](CCC(N)=O)C(=O)N[C@@H](CCCCN)C(=O)N[C@@H](Cc2c[nH]cn2)C(=O)N[C@@H](CCCCN)C(=O)N[C@@H](Cc2c[nH]c3ccccc23)C(=O)N1)C(=O)O [Ca2a] (H-ACLGFGEKCNPSNDKCCKSSSLVCSQKHKWCKYDL-OH; disulfide 2-17, 9-24, 16-31 (inferred); N-terminus and C-terminus assumed)",dissociation time constant from Nav1.7,Nav1.7 [1]; at 60 mV,547.2 ± 24.3 ms
same,dissociation time constant from Nav1.7,Nav1.7 [1]; at 80 mV,347.9 ± 29.2 ms
same,dissociation time constant from Nav1.7,Nav1.7 [1]; at 100 mV,169.8 ± 25.6 ms
same,inhibitory effect on Nav1.9 currents,Human Nav1.9,no inhibitory effects
same,use/frequency dependence of inhibition for Nav1.7,"Nav1.7 [2]; 1, 5 and 10 Hz",did not show obvious use/frequency dependence
same,IC50,Nav1.7 [2]; 5 Hz,244 ± 30.7 nM
same,IC50,Nav1.7 [2]; 10 Hz,185 ± 23.8 nM
same,inhibitory effect on Nav1.4/N655D,Nav1.4/N655D,no inhibitory effect
